{"source": "patent US6399647B2", "about": "“Amide derivatives for antiangiogenic and/or antitumorigenic use” (Vanderbilt University, priority 1999, dated 2002)", "key": {"ovine COX-1": {"biological_target": "T1, ovine COX-1 (Ovis aries, UniProt P05979)", "T1 construct": "COX-1 was purified from ram seminal vesicles obtained from Oxford Biomedical Research, Inc; tissue Oxford Biomedical Research, Inc. (Oxford, Michigan) (supplier of the tissue); host or cells: ram seminal vesicles", "T1 sequence (P05979 25-600)": "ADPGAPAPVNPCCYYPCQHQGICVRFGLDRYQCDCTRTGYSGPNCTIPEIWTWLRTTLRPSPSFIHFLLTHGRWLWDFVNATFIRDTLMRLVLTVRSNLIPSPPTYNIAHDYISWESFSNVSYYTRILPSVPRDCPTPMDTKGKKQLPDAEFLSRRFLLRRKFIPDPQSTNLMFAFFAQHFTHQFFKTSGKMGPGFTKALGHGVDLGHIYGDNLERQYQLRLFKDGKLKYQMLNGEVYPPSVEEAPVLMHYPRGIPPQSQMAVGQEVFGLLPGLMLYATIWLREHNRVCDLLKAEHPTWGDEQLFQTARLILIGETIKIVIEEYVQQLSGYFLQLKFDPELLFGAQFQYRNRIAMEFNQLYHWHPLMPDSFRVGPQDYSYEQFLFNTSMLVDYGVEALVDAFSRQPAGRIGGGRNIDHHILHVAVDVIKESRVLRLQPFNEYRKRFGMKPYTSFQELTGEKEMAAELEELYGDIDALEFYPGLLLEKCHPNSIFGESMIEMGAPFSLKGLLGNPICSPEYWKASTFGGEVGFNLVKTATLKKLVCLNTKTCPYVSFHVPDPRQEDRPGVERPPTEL", "test": "TLC assay, inhibition of purified ovine COX-1", "assay_type": "biochemical", "conditions": "ovine COX-1 (44 nM), inhibitor 20 min, then 1-14C-AA (50 μM) at 37° C. for 30 sec, duplicate"}, "[1]": {"system": "carrageenan-induced rat foot pad edema", "test": "Rat foot pad edema model (carrageenan)", "assay_type": "in vivo", "conditions": "2 mg/kg orally", "experimental": "Rats were injected with carrageenan, which triggers a rapid edema (swelling) within 3 hours that can be quantitatively measured by volume displacement.\nIn these experiments, the carrageenan that was injected was in 0.1 mL of aqueous saline so that 0.1 mL volume increase was due to the injection alone.\nMore specifically, male Sprague-Dawley rats (150 g) received a subplantar injection of carrageenan (0.1 mL of a 1% suspension of carrageenan in sterile aqueous saline) into the right hind footpad while mildly anesthetized with methoxyflurane. […] The ipsilateral footpad volume (mL) was measured with a water displacement plethysmometer at time=3 hours post-injection and compared to the time=0 pre-injection paw volume for edema calculations."}, "COX-2 [2]": {"biological_target": "T2, COX-2 (Homo sapiens, UniProt P35354)", "T2 sequence (P35354 18-604)": "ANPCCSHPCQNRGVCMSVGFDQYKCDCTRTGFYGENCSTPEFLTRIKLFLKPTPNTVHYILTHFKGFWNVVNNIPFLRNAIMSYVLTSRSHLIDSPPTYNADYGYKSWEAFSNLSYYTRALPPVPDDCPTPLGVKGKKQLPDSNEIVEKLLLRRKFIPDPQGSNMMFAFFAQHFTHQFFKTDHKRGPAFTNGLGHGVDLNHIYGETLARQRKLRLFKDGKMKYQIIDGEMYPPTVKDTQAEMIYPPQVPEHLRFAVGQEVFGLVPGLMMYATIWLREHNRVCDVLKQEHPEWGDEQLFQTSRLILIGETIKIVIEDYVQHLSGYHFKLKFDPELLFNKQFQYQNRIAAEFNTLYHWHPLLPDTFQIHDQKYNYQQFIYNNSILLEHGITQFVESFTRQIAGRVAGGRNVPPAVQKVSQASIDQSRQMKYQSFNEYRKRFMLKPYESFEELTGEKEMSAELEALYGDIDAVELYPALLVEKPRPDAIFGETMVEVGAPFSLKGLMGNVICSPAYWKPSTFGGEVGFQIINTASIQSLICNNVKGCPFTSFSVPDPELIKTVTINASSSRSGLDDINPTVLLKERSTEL", "test": "TLC assay, inhibition of purified human COX-2", "assay_type": "biochemical", "design": "made in house; host or cells: insect cells (baculovirus vectors)"}, "COX-1": {"system": "COX-1", "conditions": "background b24; cited from earlier work"}, "tumors": {"system": "tumors", "conditions": "background b24; cited from earlier work"}, "COX-2 [3]": {"biological_target": "T2, COX-2", "conditions": "background b24; cited from earlier work"}, "[4]": {"system": "HCA-7 (human colon adenocarcinoma, colony 29) cells", "test": "Human tumor xenograft assay in nude mice", "assay_type": "in vivo", "conditions": "HCA-7, 5 mg/kg intraperitoneally 3 times per week", "procedure": "Tumor volume was determined by external measurement with an electronic caliper."}}, "note": "Like-named read-outs stand apart in the source and are kept apart here.", "data": [{"compound": "COc1ccc2c(c1)c(CC(=O)N(C)CCc1ccccc1)c(C)n2C(=O)c1ccc(Cl)cc1", "note": "[Compound 9, lndomethacin-N-methylphenethyl amide]", "values": [{"measurement": "IC50", "setting": "ovine COX-1", "value": "> 66", "unit": "µM"}]}, {"compound": "COc1ccc2c(c1)c(CC(=O)Nc1ccc(NC(C)=O)cc1)c(C)n2C(=O)c1ccc(Cl)cc1", "note": "[Compound 14, Indomethacin-N-(4-acetamidophenyl) amide]", "values": [{"measurement": "effect on swelling / inflammation (in words)", "setting": "[1]", "value": "dramatic decrease in swelling"}]}, {"compound": "COc1ccc2c(c1)c(CC(=O)Nc1cccnc1)c(C)n2C(=O)c1ccc(Cl)cc1", "note": "[Compound 20, Indomethacin-N-(3-pyridyl) amide]", "values": [{"measurement": "COX-2 inhibition (in words)", "setting": "COX-2 [2]", "value": "potent and selective COX-2 inhibition"}]}, {"compound": "COc1ccc2c(c1)c(CC(=O)O)c(C)n2C(=O)c1ccc(Cl)cc1", "note": "[Indomethacin, indomethacin, reference compound]", "values": [{"measurement": "effect on swelling / inflammation (in words)", "setting": "[1]", "value": "comparable reduction in inflammation"}]}, {"compound": "CSc1ccc(/C=C2/C(C)=C(CC(=O)O)c3cc(F)ccc32)cc1", "note": "[sulindac sulfide]", "values": [{"measurement": "more potent inhibitor against COX-1 than COX-2", "setting": "COX-1", "value": 40, "unit": "fold"}, {"measurement": "inhibition of tumors (in words)", "setting": "tumors", "value": "exhibits inhibition of tumors"}]}, {"compound": "CC1=C(CC(=O)O)c2cc(F)ccc2/C1=C\\c1ccc(S(C)(=O)=O)cc1", "note": "[sulindac sulfone]", "values": [{"measurement": "COX-1 inhibition (in words)", "setting": "COX-1", "value": "does not inhibit"}, {"measurement": "COX-2 inhibition (in words)", "setting": "COX-2 [3]", "value": "does not inhibit"}, {"measurement": "inhibition of tumors (in words)", "setting": "tumors", "value": "exhibits inhibition of tumors"}]}, {"compound": "Indomethacin-N-2-(2-L-methoxycarbonylethyl) amide [Compound 25]", "values": [{"measurement": "IC50", "setting": "COX-2 [2]; human COX-2 (66 nM), inhibitor 20 min, then 1-14C-AA (50 μM) at 37° C. for 30 sec, duplicate", "value": 0.4, "unit": "µM"}]}, {"compound": "Indomethacin-N-(2-phenethyl) amide [Compound 11]", "values": [{"measurement": "tumor growth (in words)", "setting": "[4]", "value": "significantly inhibited tumor growth"}, {"measurement": "tumor vol. cm^3", "setting": "[4]; day of explant 22", "value": 0.10, "unit": "cm^3"}, {"measurement": "tumor vol. cm^3", "setting": "[4]; day of explant 25", "value": 0.11, "unit": "cm^3"}, {"measurement": "tumor vol. cm^3", "setting": "[4]; day of explant 27", "value": 0.13, "unit": "cm^3"}, {"measurement": "tumor vol. cm^3", "setting": "[4]; day of explant 29", "value": 0.14, "unit": "cm^3"}, {"measurement": "tumor vol. cm^3", "setting": "[4]; day of explant 31", "value": 0.17, "unit": "cm^3"}]}]}
